System: Beagle dogs
Assay: Subchronic toxicity test in Beagle dogs: serum biochemistry
Assay type: in vivo
Description: HZ1006 was administered orally to dogs (four/sex/group) at doses of 80, 40, 20, 5 and 0 (control) mg/kg/day, and the dosage volume was 2 mL/kg. The dogs received test doses with the exact amounts on a weekly basis based on current body weights. […] The other dogs in the above groups were dissected on the planned days. For the other groups, half of the dogs were anatomized on d28 and the remaining half on d42.
The following indexes were examined for the dogs used in the study, twice during the pre-dosage period and on d14, d28 and d42. The following parameters were evaluated on d28 and d42 for the rats in the study:
The animal blood samples were collected in the tubes containing the coagulator and centrifuged at 500 g for 10 min; the supernatant was then collected into a new tube. The serum biochemistry indexes included the following: alanine aminotransferase (ALT), alkaline phosphatase (ALP), aspartate aminotransferase (AST), blood urea (BU), lactate dehydrogenase (LDH), total bilirubin (TBIL), creatinine (Crea), albumin (ALB), total protein (TP), triglycerides (TG), total cholesterol (TCH), γ-glutamyltranspeptidase (g-GT), glucose (GLU), creatine phosphokinase (CPK), uric acid (UA), phosphorus (P), and calcium (Ca^2+). The above parameters were analyzed using an Automatic Analyzer 7080 provided by Hitachi High-Technologies Corp. (Tokyo, Japan). An Na/K/Cl Analyzer EasyLyte PLUS from Medica Corp. (Bedford, MA, USA), was used to determine the levels of chloride (Cl^−), sodium (Na^+) and potassium (K^+) in the blood samples.

[1] = dog ♀6 (80 mg/kg/day oral), d0 (pre-dose)
[2] = dog ♀6 (80 mg/kg/day oral), d14 line (moribund, euthanized d8)
[3] = dog ♀28 (40 mg/kg/day oral), d0 (pre-dose)
[4] = dog ♀28 (40 mg/kg/day oral), d14 (died d16)
[5] = dogs, 5 mg/kg/day oral, d0 (pre-dose)
[6] = dogs, 5 mg/kg/day oral, d42 (recovery)
[7] = dogs, 20 mg/kg/day oral, d0 (pre-dose)

SMILES: CCCCCCCNc1cc(/C=C/C(=O)NO)ccc1OCCN(CC)CC [HZ1006]
- ALP: Alkaline phosphatase [1]: 1.50 µmol/s/L
- ALT: Alanine aminotransferase [1]: 487 nmol/s/L
- AST: Aspartate aminotransferase [1]: 456 nmol/s/L
- BU: Blood urea [1]: 4.04 mmol/L
- CPK: Creatine phosphokinase [1]: 3.06 µmol/s/L
- CREA: Creatinine [1]: 52.8 µmol/L
- LDH: Lactate dehydrogenase [1]: 2.78 µmol/s/L
- TBIL: Total bilirubin [1]: 2.95 µmol/L
- TCH: Total cholesterol [1]: 3.27 mmol/L
- ALP: Alkaline phosphatase [2]: 3.86 µmol/s/L
- ALT: Alanine aminotransferase [2]: 466 nmol/s/L
- AST: Aspartate aminotransferase [2]: 1907 nmol/s/L
- BU: Blood urea [2]: 15.20 mmol/L
- CPK: Creatine phosphokinase [2]: 57.57 µmol/s/L
- CREA: Creatinine [2]: 82.4 µmol/L
- LDH: Lactate dehydrogenase [2]: 2.91 µmol/s/L
- TBIL: Total bilirubin [2]: 11.53 µmol/L
- TCH: Total cholesterol [2]: 11.04 mmol/L
- TG: Triglycerides (dog ♀6 (80 mg/kg/day oral), printed in d0 line): 1.60 mmol/L
- TCH: Total cholesterol (dog ♀6 (80 mg/kg/day oral), printed in d42 line): 0.31 mmol/L
- ALP: Alkaline phosphatase [3]: 1.33 µmol/s/L
- ALT: Alanine aminotransferase [3]: 428 nmol/s/L
- AST: Aspartate aminotransferase [3]: 398 nmol/s/L
- BU: Blood urea [3]: 4.08 mmol/L
- CPK: Creatine phosphokinase [3]: 2.47 µmol/s/L
- CREA: Creatinine [3]: 47.9 µmol/L
- LDH: Lactate dehydrogenase [3]: 2.21 µmol/s/L
- TBIL: Total bilirubin [3]: 2.18 µmol/L
- TCH: Total cholesterol [3]: 5.85 mmol/L
- ALP: Alkaline phosphatase [4]: 3.16 µmol/s/L
- ALT: Alanine aminotransferase [4]: 852 nmol/s/L
- AST: Aspartate aminotransferase [4]: 4924 nmol/s/L
- BU: Blood urea [4]: 4.89 mmol/L
- CPK: Creatine phosphokinase [4]: 6.39 µmol/s/L
- CREA: Creatinine [4]: 37.8 µmol/L
- LDH: Lactate dehydrogenase [4]: 2.06 µmol/s/L
- TBIL: Total bilirubin [4]: 9.65 µmol/L
- TCH: Total cholesterol [4]: 10.73 mmol/L
- ALP: Alkaline phosphatase [5]: 1.47 ± 0.30 µmol/s/L
- ALT: Alanine aminotransferase [5]: 559 ± 120 nmol/s/L
- AST: Aspartate aminotransferase [5]: 463 ± 106 nmol/s/L
- BU: Blood urea [5]: 4.03 ± 0.52 mmol/L
- CPK: Creatine phosphokinase [5]: 2.94 ± 1.40 µmol/s/L
- CREA: Creatinine [5]: 51.5 ± 9.3 µmol/L
- LDH: Lactate dehydrogenase [5]: 3.08 ± 1.36 µmol/s/L
- TBIL: Total bilirubin [5]: 2.34 ± 0.31 µmol/L
- TCH: Total cholesterol [5]: 4.28 ± 0.36 mmol/L
- TG: Triglycerides [5]: 0.43 ± 0.11 mmol/L
- ALP: Alkaline phosphatase (dogs, 5 mg/kg/day oral, d14): 1.45 ± 0.35 µmol/s/L
- ALT: Alanine aminotransferase (dogs, 5 mg/kg/day oral, d14): 521 ± 116 nmol/s/L
- AST: Aspartate aminotransferase (dogs, 5 mg/kg/day oral, d14): 442 ± 105 nmol/s/L
- BU: Blood urea (dogs, 5 mg/kg/day oral, d14): 4.10 ± 0.90 mmol/L
- CPK: Creatine phosphokinase (dogs, 5 mg/kg/day oral, d14): 2.63 ± 1.36 µmol/s/L
- CREA: Creatinine (dogs, 5 mg/kg/day oral, d14): 51.0 ± 9.9 µmol/L
- LDH: Lactate dehydrogenase (dogs, 5 mg/kg/day oral, d14): 2.27 ± 1.24 µmol/s/L
- TBIL: Total bilirubin (dogs, 5 mg/kg/day oral, d14): 2.01 ± 0.41 µmol/L
- TCH: Total cholesterol (dogs, 5 mg/kg/day oral, d14): 3.98 ± 0.64 mmol/L
- TG: Triglycerides (dogs, 5 mg/kg/day oral, d14): 0.39 ± 0.08 mmol/L
- ALP: Alkaline phosphatase (dogs, 5 mg/kg/day oral, d28): 1.51 ± 0.29 µmol/s/L
- ALT: Alanine aminotransferase (dogs, 5 mg/kg/day oral, d28): 593 ± 105 nmol/s/L
- AST: Aspartate aminotransferase (dogs, 5 mg/kg/day oral, d28): 424 ± 109 nmol/s/L
- BU: Blood urea (dogs, 5 mg/kg/day oral, d28): 3.82 ± 0.51 mmol/L
- CPK: Creatine phosphokinase (dogs, 5 mg/kg/day oral, d28): 2.43 ± 0.19 µmol/s/L
- CREA: Creatinine (dogs, 5 mg/kg/day oral, d28): 51.4 ± 10.9 µmol/L
- LDH: Lactate dehydrogenase (dogs, 5 mg/kg/day oral, d28): 2.71 ± 1.12 µmol/s/L
- TBIL: Total bilirubin (dogs, 5 mg/kg/day oral, d28): 2.08 ± 0.52 µmol/L
- TCH: Total cholesterol (dogs, 5 mg/kg/day oral, d28): 4.24 ± 0.56 mmol/L
- TG: Triglycerides (dogs, 5 mg/kg/day oral, d28): 0.35 ± 0.11 mmol/L
- ALP: Alkaline phosphatase [6]: 1.45 ± 0.37 µmol/s/L
- ALT: Alanine aminotransferase [6]: 558 ± 90 nmol/s/L
- AST: Aspartate aminotransferase [6]: 451 ± 79 nmol/s/L
- BU: Blood urea [6]: 4.83 ± 0.20 mmol/L
- CPK: Creatine phosphokinase [6]: 2.97 ± 0.18 µmol/s/L
- CREA: Creatinine [6]: 55.6 ± 4.5 µmol/L
- LDH: Lactate dehydrogenase [6]: 2.21 ± 1.32 µmol/s/L
- TBIL: Total bilirubin [6]: 2.01 ± 0.33 µmol/L
- TCH: Total cholesterol [6]: 3.99 ± 0.41 mmol/L
- TG: Triglycerides [6]: 0.31 ± 0.09 mmol/L
- ALP: Alkaline phosphatase [7]: 1.48 ± 0.48 µmol/s/L
- ALT: Alanine aminotransferase [7]: 535 ± 92 nmol/s/L
- AST: Aspartate aminotransferase [7]: 456 ± 92 nmol/s/L
- BU: Blood urea [7]: 4.35 ± 0.98 mmol/L
- CPK: Creatine phosphokinase [7]: 2.98 ± 0.64 µmol/s/L
- CREA: Creatinine [7]: 51.6 ± 7.5 µmol/L
- LDH: Lactate dehydrogenase [7]: 2.85 ± 0.86 µmol/s/L
- TBIL: Total bilirubin [7]: 2.55 ± 0.28 µmol/L
- TCH: Total cholesterol [7]: 4.31 ± 0.36 mmol/L
- TG: Triglycerides [7]: 0.42 ± 0.09 mmol/L
- ALP: Alkaline phosphatase (dogs, 20 mg/kg/day oral, d14): 0.85 ± 0.25 µmol/s/L
- ALT: Alanine aminotransferase (dogs, 20 mg/kg/day oral, d14): 425 ± 105 nmol/s/L
- AST: Aspartate aminotransferase (dogs, 20 mg/kg/day oral, d14): 384 ± 56 nmol/s/L
- BU: Blood urea (dogs, 20 mg/kg/day oral, d14): 4.52 ± 1.05 mmol/L
- CPK: Creatine phosphokinase (dogs, 20 mg/kg/day oral, d14): 2.43 ± 0.48 µmol/s/L
- CREA: Creatinine (dogs, 20 mg/kg/day oral, d14): 58.6 ± 10.6 µmol/L
- LDH: Lactate dehydrogenase (dogs, 20 mg/kg/day oral, d14): 1.23 ± 0.45 µmol/s/L
- TBIL: Total bilirubin (dogs, 20 mg/kg/day oral, d14): 1.85 ± 0.16 µmol/L
- TCH: Total cholesterol (dogs, 20 mg/kg/day oral, d14): 3.16 ± 0.34 mmol/L
- TG: Triglycerides (dogs, 20 mg/kg/day oral, d14): 0.29 ± 0.08 mmol/L
